Measurements reported in patent publication US20230097883A1, “ERGOTHIONEINE PET COMPOUNDS AND METHODS OF USE THEREOF” (VANDERBILT UNIVERSITY, priority 2021, published 2023).

Test system: oxidative stress
Assay: PET imaging of LPS-induced neuroinflammation with [11C]ERGO radioligand, with Tempol blocking
Format: in vivo, mouse
Details: LPS-treated WT mice, Tempol 0.2 mg/mL prior to [11C]ERGO
Description: The mice were injected with ˜20 MBq/0.1 ml 11C-ERGO via the tail vein and returned to their cages for 10 min. Then they were anesthetized with 2% isofluorane and imaged in an Inveon microPET (Siemens Pre-clinical, Knoxville, Tenn., USA) for 30 min in static mode followed by a CT scan using a NanoSPECT/CT (Mediso, Wash. D.C.) at an x-ray beam intensity of […] and x-ray voltage of 45 kVp. PET images were reconstructed using the iterative MAP reconstruction algorithm with 18 iterations and a beta smoothing value of 0.001 into 128×128×95 slices with a voxel size of 0.388 mm×0.388 mm×0.796 mm. The CT images were reconstructed into 170×170×126 slices at a voxel size of 0.4×0.4×0.4 mm^3. The PET and CT images were co-registered using the imaging tool AMIDE.
The mouse model of LPS-induced neuroinflammation was developed based on past reports. The LPS derived from Escherichia coli […] (Sigma Aldrich, St Louis, Mo.) was formulated in sterilized dd. water and given a high dose of LPS formulation (5 mg/Kg) through intraperitoneal injection 24 h before PET imaging. This high dose would result in approximately 12-13% body weight loss over the course of 24 h. After PET imaging, animals were sacrificed, and the brains were collected for histology analysis.
The reported LPS mouse model of neuroinflammation in the past was reproduced for the validation of the specificity of the probe. […]

Question: `CC1(C)CC(O)CC(C)(C)N1[O]` [Tempol, 4-hydroxy-2,2,6,6-tetramethyl piperidinoxyl, reference compound] was tested. Which “[11C]ERGO PET signal in brain of LPS-treated mice after co-injection with excess Tempol (blocking)” value did it give?
Answer: significant reduction of the PET signal
